Data taken from ChEMBL document CHEMBL3885881, “DrugMatrix”.

Organism: Rattus norvegicus
Assay: DrugMatrix - Regimen: Daily Repeat
Type: toxicity, organism-based, Sprague-Dawley
Design: regimen Daily Repeat, gender Male, age 6-8 weeks
Settings: in vivo, po, route oral GAVAGE, […]; for BASOPHIL / EOSINOPHIL / ERYTHROCYTE COUNT / HEMATOCRIT / HEMOGLOBIN / LEUKOCYTE COUNT / LYMPHOCYTE / MEAN CORPUSCULAR HEMOGLOBIN / MEAN CORPUSCULAR HEMOGLOBIN CONCENTRATION / MEAN CORPUSCULAR VOLUME / MONOCYTE / NEUTROPHIL / PLATELET COUNT: tissue Blood; for ALANINE AMINOTRANSFERASE / ALBUMIN / ALKALINE PHOSPHATASE / ASPARTATE AMINOTRANSFERASE / BLOOD UREA NITROGEN / CARBON DIOXIDE / CHLORIDE / CHOLESTEROL / CREATINE PHOSPHOKINASE / CREATININE / GLUCOSE / LACTATE DEHYDROGENASE / LIPASE / PHOSPHORUS / POTASSIUM / SODIUM / TOTAL BILIRUBIN / TOTAL PROTEIN / URIC ACID: tissue Plasma
[1] = 0 mg/kg, 72 h, dose level Control, time 3 day
[2] = 0 mg/kg, 120 h, dose level Control, time 5 day
[3] = 0 mg/kg, dose level Control, time 14 day
[4] = 24 mg/kg, 72 h, dose level High, time 3 day
[5] = 24 mg/kg, 120 h, dose level High, time 5 day
[6] = 24 mg/kg, dose level High, time 14 day

c1ccoc1 [FURAN]
BASOPHIL [1]: 0.55% | EOSINOPHIL [1]: 0.55% | ERYTHROCYTE COUNT [1]: 6.6 x10E6/uL | HEMATOCRIT [1]: 43.77% | HEMOGLOBIN [1]: 14.12 G/DL | LEUKOCYTE COUNT [1]: 10.15 x10E3/uL | LYMPHOCYTE [1]: 87.95% | MEAN CORPUSCULAR HEMOGLOBIN [1]: 21.4 pg | MEAN CORPUSCULAR HEMOGLOBIN CONCENTRATION [1]: 32.23 G/DL | MEAN CORPUSCULAR VOLUME [1]: 66.33 fL | MONOCYTE [1]: 1.7% | NEUTROPHIL [1]: 8.05% | PLATELET COUNT [1]: 1122 x10E3/uL | ALANINE AMINOTRANSFERASE [1]: 49.33 u/L | ALBUMIN [1]: 4.08 G/DL | ALKALINE PHOSPHATASE [1]: 565 u/L | ASPARTATE AMINOTRANSFERASE [1]: 81.5 u/L | BLOOD UREA NITROGEN [1]: 14.33 mg/dL | CARBON DIOXIDE [1]: 27.17 mmol/L | CHLORIDE [1]: 106.83 MEQ/L | CHOLESTEROL [1]: 74.83 mg/dL | CREATINE PHOSPHOKINASE [1]: 342.33 u/L | CREATININE [1]: 0.4 mg/dL | GLUCOSE [1]: 169.5 mg/dL | LACTATE DEHYDROGENASE [1]: 165.17 u/L | LIPASE [1]: 13.67 u/L | PHOSPHORUS [1]: 12.42 mg/dL | POTASSIUM [1]: 6.7 MEQ/L | SODIUM [1]: 151.17 MEQ/L | TOTAL BILIRUBIN [1]: 0.4 mg/dL | TOTAL PROTEIN [1]: 6.13 G/DL | URIC ACID [1]: 1.62 mg/dL | BASOPHIL [2]: 0.87% | EOSINOPHIL [2]: 0.53% | ERYTHROCYTE COUNT [2]: 6.86 x10E6/uL | HEMATOCRIT [2]: 45.15% | HEMOGLOBIN [2]: 14.42 G/DL | LEUKOCYTE COUNT [2]: 12.67 x10E3/uL | LYMPHOCYTE [2]: 87.1% | MEAN CORPUSCULAR HEMOGLOBIN [2]: 21.05 pg | MEAN CORPUSCULAR HEMOGLOBIN CONCENTRATION [2]: 32 G/DL | MEAN CORPUSCULAR VOLUME [2]: 65.75 fL | MONOCYTE [2]: 1.9% | NEUTROPHIL [2]: 8.25% | PLATELET COUNT [2]: 1111 x10E3/uL | ALANINE AMINOTRANSFERASE [2]: 46.17 u/L | ALBUMIN [2]: 4.15 G/DL | ALKALINE PHOSPHATASE [2]: 447.17 u/L | ASPARTATE AMINOTRANSFERASE [2]: 65.67 u/L | BLOOD UREA NITROGEN [2]: 13.17 mg/dL | CARBON DIOXIDE [2]: 29 mmol/L | CHLORIDE [2]: 104.5 MEQ/L | CHOLESTEROL [2]: 72 mg/dL | CREATINE PHOSPHOKINASE [2]: 368.5 u/L | CREATININE [2]: 0.3 mg/dL | GLUCOSE [2]: 162.83 mg/dL | LACTATE DEHYDROGENASE [2]: 99.33 u/L | LIPASE [2]: 12.67 u/L | PHOSPHORUS [2]: 12.65 mg/dL | POTASSIUM [2]: 6.52 MEQ/L | SODIUM [2]: 148.67 MEQ/L | TOTAL BILIRUBIN [2]: 0.38 mg/dL | TOTAL PROTEIN [2]: 6.15 G/DL | URIC ACID [2]: 1.9 mg/dL | BASOPHIL [3]: 0.58% | EOSINOPHIL [3]: 0.45% | ERYTHROCYTE COUNT [3]: 7.51 x10E6/uL | HEMATOCRIT [3]: 46.87% | HEMOGLOBIN [3]: 15.2 G/DL | LEUKOCYTE COUNT [3]: 14.2 x10E3/uL | LYMPHOCYTE [3]: 80.78% | MEAN CORPUSCULAR HEMOGLOBIN [3]: 20.25 pg | MEAN CORPUSCULAR HEMOGLOBIN CONCENTRATION [3]: 32.42 G/DL | MEAN CORPUSCULAR VOLUME [3]: 62.45 fL | MONOCYTE [3]: 1.95% | NEUTROPHIL [3]: 13.97% | PLATELET COUNT [3]: 1115.17 x10E3/uL | ALANINE AMINOTRANSFERASE [3]: 32.5 u/L | ALBUMIN [3]: 4.22 G/DL | ALKALINE PHOSPHATASE [3]: 349.5 u/L | ASPARTATE AMINOTRANSFERASE [3]: 59.67 u/L | BLOOD UREA NITROGEN [3]: 14.83 mg/dL | CARBON DIOXIDE [3]: 30.33 mmol/L | CHLORIDE [3]: 102.17 MEQ/L | CHOLESTEROL [3]: 76 mg/dL | CREATINE PHOSPHOKINASE [3]: 163.17 u/L | CREATININE [3]: 0.37 mg/dL | GLUCOSE [3]: 157.33 mg/dL | LACTATE DEHYDROGENASE [3]: 93 u/L | LIPASE [3]: 10.4 u/L | PHOSPHORUS [3]: 11.93 mg/dL | POTASSIUM [3]: 6.55 MEQ/L | SODIUM [3]: 147.5 MEQ/L | TOTAL BILIRUBIN [3]: 0.4 mg/dL | TOTAL PROTEIN [3]: 6.45 G/DL | URIC ACID [3]: 0.7 mg/dL | BASOPHIL [4]: 0.77% | EOSINOPHIL [4]: 0.73% | ERYTHROCYTE COUNT [4]: 7.35 x10E6/uL | HEMATOCRIT [4]: 48.6% | HEMOGLOBIN [4]: 15.9 G/DL | LEUKOCYTE COUNT [4]: 11.15 x10E3/uL | LYMPHOCYTE [4]: 82.1% | MEAN CORPUSCULAR HEMOGLOBIN [4]: 21.57 pg | MEAN CORPUSCULAR HEMOGLOBIN CONCENTRATION [4]: 32.67 G/DL | MEAN CORPUSCULAR VOLUME [4]: 66.1 fL | MONOCYTE [4]: 3.27% | NEUTROPHIL [4]: 11.37% | PLATELET COUNT [4]: 1059 x10E3/uL | ALANINE AMINOTRANSFERASE [4]: 358 u/L | ALBUMIN [4]: 3.77 G/DL | ALKALINE PHOSPHATASE [4]: 771.67 u/L | ASPARTATE AMINOTRANSFERASE [4]: 316 u/L | BLOOD UREA NITROGEN [4]: 12.33 mg/dL | CARBON DIOXIDE [4]: 25 mmol/L | CHLORIDE [4]: 105.67 MEQ/L | CHOLESTEROL [4]: 87.67 mg/dL | CREATINE PHOSPHOKINASE [4]: 333.33 u/L | CREATININE [4]: 0.57 mg/dL | GLUCOSE [4]: 150.67 mg/dL | LACTATE DEHYDROGENASE [4]: 707 u/L | LIPASE [4]: 11.67 u/L | PHOSPHORUS [4]: 13.97 mg/dL | POTASSIUM [4]: 6.6 MEQ/L | SODIUM [4]: 149.33 MEQ/L | TOTAL BILIRUBIN [4]: 0.93 mg/dL | TOTAL PROTEIN [4]: 5.4 G/DL | URIC ACID [4]: 2.27 mg/dL | BASOPHIL [5]: 0.57% | EOSINOPHIL [5]: 0.6% | ERYTHROCYTE COUNT [5]: 7.68 x10E6/uL | HEMATOCRIT [5]: 50.57% | HEMOGLOBIN [5]: 16.23 G/DL | LEUKOCYTE COUNT [5]: 17.47 x10E3/uL | LYMPHOCYTE [5]: 82.63% | MEAN CORPUSCULAR HEMOGLOBIN [5]: 21.1 pg | MEAN CORPUSCULAR HEMOGLOBIN CONCENTRATION [5]: 32.1 G/DL | MEAN CORPUSCULAR VOLUME [5]: 65.87 fL | MONOCYTE [5]: 2.43% | NEUTROPHIL [5]: 12.47% | PLATELET COUNT [5]: 1240.33 x10E3/uL | ALANINE AMINOTRANSFERASE [5]: 114.33 u/L | ALBUMIN [5]: 3.83 G/DL | ALKALINE PHOSPHATASE [5]: 986 u/L | ASPARTATE AMINOTRANSFERASE [5]: 240.67 u/L | BLOOD UREA NITROGEN [5]: 12.33 mg/dL | CARBON DIOXIDE [5]: 30.67 mmol/L | CHLORIDE [5]: 101.67 MEQ/L | CHOLESTEROL [5]: 93.33 mg/dL | CREATINE PHOSPHOKINASE [5]: 798.67 u/L | CREATININE [5]: 0.37 mg/dL | GLUCOSE [5]: 143 mg/dL | LACTATE DEHYDROGENASE [5]: 233.67 u/L | LIPASE [5]: 14.67 u/L | PHOSPHORUS [5]: 12.43 mg/dL | POTASSIUM [5]: 7.1 MEQ/L | SODIUM [5]: 148.33 MEQ/L | TOTAL BILIRUBIN [5]: 0.87 mg/dL | TOTAL PROTEIN [5]: 5.63 G/DL | URIC ACID [5]: 2.27 mg/dL | BASOPHIL [6]: 0.54% | EOSINOPHIL [6]: 0.64% | ERYTHROCYTE COUNT [6]: 8.42 x10E6/uL | HEMATOCRIT [6]: 50.4% | HEMOGLOBIN [6]: 16.6 G/DL | LEUKOCYTE COUNT [6]: 14.86 x10E3/uL | LYMPHOCYTE [6]: 74.12% | MEAN CORPUSCULAR HEMOGLOBIN [6]: 19.76 pg | MEAN CORPUSCULAR HEMOGLOBIN CONCENTRATION [6]: 32.96 G/DL | MEAN CORPUSCULAR VOLUME [6]: 59.9 fL | MONOCYTE [6]: 2.54% | NEUTROPHIL [6]: 20.58% | PLATELET COUNT [6]: 1423.6 x10E3/uL | ALANINE AMINOTRANSFERASE [6]: 56 u/L | ALBUMIN [6]: 4.28 G/DL | ALKALINE PHOSPHATASE [6]: 706.2 u/L | ASPARTATE AMINOTRANSFERASE [6]: 86.6 u/L | BLOOD UREA NITROGEN [6]: 13.2 mg/dL | CARBON DIOXIDE [6]: 27 mmol/L | CHLORIDE [6]: 104 MEQ/L | CHOLESTEROL [6]: 106.8 mg/dL | CREATINE PHOSPHOKINASE [6]: 224.2 u/L | CREATININE [6]: 0.42 mg/dL | GLUCOSE [6]: 136.6 mg/dL | LACTATE DEHYDROGENASE [6]: 113.8 u/L | LIPASE [6]: 17.2 u/L | PHOSPHORUS [6]: 10.26 mg/dL | POTASSIUM [6]: 5.84 MEQ/L | SODIUM [6]: 148.4 MEQ/L | TOTAL BILIRUBIN [6]: 0.72 mg/dL | TOTAL PROTEIN [6]: 6.34 G/DL | URIC ACID [6]: 1.26 mg/dL
